This note sets out measurements from ChEMBL document CHEMBL1201862, “PubChem BioAssay data set” (2004).

Each structure is given as a SMILES string.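 Grown in 96-well plates, cells were treated for 48 hours with each compound at five concentrations. Insufficient inhibition: endpoint recorded as highest concentration tested. At the GI50, growth is halved.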 Activity calls are given as the source filed them. No stated cut-off is given here; in the data, active = GI50 up to about 1.1 µM and inactive = higher. Where a SMILES comes first, the peptide text is derived from it. [ ]: non-standard residue; d: D form. The star is where a group is joined. ξ: configuration not given here. ξNMe2Val = CC(C)C(C(=O)*)N(C)C; NMeV = CN[CH](C(=O)O)C(C)C; NHBn = c1ccc(CN*)cc1

Among the test systems are A549; SNB-75; MDA-MB-435; Hs-578T; M14; SF-268; SK-MEL-5; MDA-N; SF-539; RXF 393; NCI-H460; DU-145; SK-MEL-2; PC-3; LOX IMVI; CAKI-1; BT-549; SK-MEL-28; K562.
What all share (assay): NCI anticancer screen, dose series, 48 h

For the compound `O=c1cc(-c2ccccc2)[nH]c2ccc(N3CCOCC3)cc12`, the GI50 is 0.0773 µM (active) in the assay with A549; 0.0143 µM (active) in the assay on SNB-75; < 0.01 µM (active) in the assay with MDA-MB-435; 0.0239 µM (active) in the assay with Hs-578T; 0.0173 µM (active) with M14; 0.0407 µM (active) in the assay on SF-268. Besides, the GI50 with SK-MEL-5 is < 0.0233 µM (active); in the assay with MDA-N it was < 0.01 µM (active); in the assay on SF-539, < 0.0149 µM (active); in the assay with RXF 393, 0.04 µM (active); in the assay with NCI-H460, 0.0465 µM (active); with DU-145, 0.038 µM (active). Moreover, the GI50 was 22.5 µM (inactive) in the assay on SK-MEL-2; 0.0346 µM (active) with PC-3; 0.0335 µM (active) in the assay with LOX IMVI; 0.0291 µM (active) with CAKI-1; 23.8 µM (inactive) with BT-549; 0.0128 µM (active) in the assay on SK-MEL-28. Further, in the assay on K562, the GI50 is < 0.0127 µM (active).
`O=C1C=C(Nc2cccnc2)c2ccccc2/C1=N/O`: the GI50 was 39.6 µM (inactive) in the assay with A549; 5.69 µM (inactive) in the assay on SNB-75; 12.7 µM (inactive) with MDA-MB-435; 33.4 µM (inactive) in the assay on Hs-578T; 23.2 µM (inactive) in the assay on M14; 9.77 µM (inactive) in the assay with SF-268. Also, the GI50 in the assay on SK-MEL-5 was 4.67 µM (inactive); in the assay on MDA-N, 12.6 µM (inactive); in the assay with SF-539, 18.5 µM (inactive); with RXF 393, 33.7 µM (inactive); in the assay on NCI-H460, 22.8 µM (inactive); in the assay on DU-145, 50.5 µM (inactive). In addition, the GI50 in the assay on SK-MEL-2 is 31.3 µM (inactive); with PC-3, 19.5 µM (inactive); with LOX IMVI, 26.3 µM (inactive); in the assay with CAKI-1 it was 40.4 µM (inactive); with BT-549, 34.1 µM (inactive); with K562, 24.7 µM (inactive).
As to `CSC(=S)Nc1cc(C)cc(C)n1`, the GI50 is > 31.6 µM (inactive) in the assay on A549; > 10 µM (inactive) with SNB-75; > 31.6 µM (inactive) in the assay on MDA-MB-435; > 31.6 µM (inactive) in the assay with Hs-578T; > 31.6 µM (inactive) with M14; > 31.6 µM (inactive) in the assay on SF-268. Moreover, the GI50 with SK-MEL-5 is > 66.4 µM (inactive); in the assay with MDA-N, > 31.6 µM (inactive); in the assay on SF-539, > 100 µM (inactive); in the assay with RXF 393 it was > 31.6 µM (inactive); in the assay on NCI-H460, > 31.6 µM (inactive); in the assay with DU-145, > 31.6 µM (inactive). For the same compound, the GI50 was > 31.6 µM (inactive) in the assay with SK-MEL-2; > 31.6 µM (inactive) in the assay on PC-3; > 31.6 µM (inactive) in the assay on LOX IMVI; > 31.6 µM (inactive) with CAKI-1; > 100 µM (inactive) in the assay with BT-549; > 31.6 µM (inactive) in the assay with SK-MEL-28. Moreover, the GI50 in the assay with K562 is > 31.6 µM (inactive).
For `O=C(O)c1cc(C(=O)O)nc(C(=O)O)c1`, the GI50 in the assay on A549, in the assay on SNB-75, in the assay with MDA-MB-435, with Hs-578T, in the assay with M14 and in the assay on SF-268 was > 100 µM (inactive) in each case. Besides, the GI50 in the assay with SK-MEL-5, in the assay on MDA-N, in the assay with SF-539, in the assay on RXF 393, in the assay on NCI-H460 and with DU-145 was > 100 µM (inactive) each time. Also, the GI50 in the assay on SK-MEL-2, with PC-3, in the assay on LOX IMVI, in the assay on CAKI-1, with BT-549 and in the assay on SK-MEL-28 was > 100 µM (inactive) each time. In the assay with K562, the GI50 was > 100 µM (inactive).
Take `Cc1n(Cc2ccccc2)c2c([n+]1C)C(=O)c1ccccc1C2=O`: the GI50 in the assay with A549 was 0.0478 µM (active); with SNB-75, 0.0736 µM (active); in the assay with MDA-MB-435, 0.183 µM (active); in the assay on Hs-578T, 0.415 µM (active); in the assay on M14 it was 0.0902 µM (active); in the assay on SF-268 it was 0.0274 µM (active). Further, the GI50 with SK-MEL-5 is 0.0211 µM (active); in the assay with MDA-N, 0.173 µM (active); in the assay with SF-539, 0.026 µM (active); in the assay with RXF 393, 0.294 µM (active); with NCI-H460 it was 0.108 µM (active); in the assay with DU-145 it was 0.156 µM (active). Also, the GI50 was 0.132 µM (active) in the assay with SK-MEL-2; 0.0838 µM (active) in the assay on PC-3; 0.0473 µM (active) in the assay with LOX IMVI; 3.15 µM (inactive) in the assay with CAKI-1; 0.0822 µM (active) in the assay on BT-549; 0.0948 µM (active) with SK-MEL-28. Besides, the GI50 in the assay on K562 was 0.0366 µM (active).
With `Clc1ccc(CCNCCNC2(c3cc4ccccc4s3)CCCCC2)cc1Cl`, the GI50 in the assay on A549 was 1.81 µM (inactive); in the assay on SNB-75, 1.96 µM (inactive); in the assay on MDA-MB-435 it was 2.02 µM (inactive); in the assay with Hs-578T it was 2.05 µM (inactive); in the assay on M14, 2.01 µM (inactive); in the assay with SF-268 it was 1.79 µM (inactive). In addition, the GI50 in the assay on SK-MEL-5 was 1.72 µM (inactive); with MDA-N, 1.84 µM (inactive); in the assay on RXF 393, 2.01 µM (inactive); in the assay on NCI-H460, 1.73 µM (inactive); in the assay with DU-145, 1.88 µM (inactive); in the assay on SK-MEL-2, 1.76 µM (inactive). The GI50 is 1.73 µM (inactive) with PC-3; 1.74 µM (inactive) with LOX IMVI; 1.87 µM (inactive) in the assay on CAKI-1; 1.94 µM (inactive) in the assay on BT-549; 1.79 µM (inactive) with SK-MEL-28; 2.31 µM (inactive) with K562.
As for `CC(C)C(NC(=O)C(C(C)C)N(C)C)C(=O)N(C)C(C(=O)N1CCCC1C(=O)N1CCCC1C(=O)NCc1ccccc1)C(C)C` (stereo unspecified) (ξNMe2Val-V[NMeV]PP-NHBn; configuration not given here), the GI50 in the assay on A549 is < 0.0001 µM (active); in the assay on SNB-75, 0.172 µM (active); with MDA-MB-435 it was < 0.0001 µM (active); in the assay with Hs-578T, < 0.0001 µM (active); in the assay on M14, < 0.0001 µM (active); in the assay with SF-268 it was < 0.0001 µM (active). Moreover, the GI50 is < 0.0001 µM (active) in the assay with SK-MEL-5; < 0.0001 µM (active) with MDA-N; < 0.01 µM (active) with SF-539; 0.0175 µM (active) with RXF 393; < 0.0001 µM (active) in the assay with NCI-H460; < 0.0001 µM (active) with DU-145. The GI50 in the assay on SK-MEL-2 is < 0.0001 µM (active); in the assay with PC-3 it was < 0.0001 µM (active); with LOX IMVI, < 0.0001 µM (active); in the assay on CAKI-1, < 0.0001 µM (active); in the assay on BT-549 it was < 0.0001 µM (active); with K562 it was 0.001 µM (active).
Turning to `Brc1cccc(/N=N/N2CCCC2)c1`, the GI50 in the assay on SNB-75 is 65.5 µM (inactive); in the assay on MDA-MB-435, > 100 µM (inactive); in the assay on Hs-578T, > 100 µM (inactive); in the assay on M14, > 100 µM (inactive); in the assay on SF-268 it was > 100 µM (inactive); in the assay on SK-MEL-5 it was 66.2 µM (inactive). Further, the GI50 in the assay on MDA-N, in the assay with SF-539, with RXF 393, with NCI-H460, in the assay with DU-145 and in the assay on SK-MEL-2 was > 100 µM (inactive) in each case. The GI50 with PC-3 was 71.3 µM (inactive); in the assay with LOX IMVI, 77.1 µM (inactive); in the assay on CAKI-1 it was 75.5 µM (inactive); with BT-549 it was 68.9 µM (inactive); in the assay with K562, 48.9 µM (inactive).
Take `c1ccc(C(CCN2CCCC2)c2ccccn2)cc1` (stereo unspecified): the GI50 with A549, in the assay with SNB-75, with MDA-MB-435, in the assay with Hs-578T, with M14 and in the assay on SF-268 was > 100 µM (inactive) throughout. Moreover, the GI50 in the assay with SK-MEL-5, with MDA-N, in the assay with RXF 393, in the assay with NCI-H460, with DU-145 and with SK-MEL-2 was > 100 µM (inactive) in each case. For the same compound, the GI50 in the assay with PC-3, with LOX IMVI, in the assay on CAKI-1, in the assay on BT-549, with SK-MEL-28 and in the assay on K562 was > 100 µM (inactive) in each case.
For `COC(=O)c1ccccc1C1CN=NC12Cc1c(ccc(C)c1C)C2=O` (stereo unspecified), the GI50 in the assay on A549 is > 100 µM (inactive); in the assay with SNB-75 it was 22 µM (inactive); with MDA-MB-435, > 100 µM (inactive); with Hs-578T it was 80.9 µM (inactive); in the assay with M14, > 100 µM (inactive); in the assay on SF-268, 39.1 µM (inactive). Besides, the GI50 in the assay on SK-MEL-5, with MDA-N, in the assay on RXF 393, in the assay with NCI-H460, in the assay with DU-145 and with SK-MEL-2 was > 100 µM (inactive) each time. Besides, the GI50 is 90.6 µM (inactive) in the assay on PC-3; > 100 µM (inactive) in the assay with LOX IMVI; > 100 µM (inactive) in the assay with CAKI-1; > 100 µM (inactive) in the assay with BT-549; > 100 µM (inactive) in the assay with SK-MEL-28; > 100 µM (inactive) in the assay with K562.
As for `CN1CCC23c4c5ccc(O)c4OC2c2[nH]c4ccccc4c2CC3(O)C1C5` (stereo unspecified), the GI50 is 53 µM (inactive) with A549; 36.7 µM (inactive) in the assay with SNB-75; 18.2 µM (inactive) in the assay on MDA-MB-435; 24.2 µM (inactive) in the assay on Hs-578T; 17.7 µM (inactive) in the assay with M14; 32.1 µM (inactive) in the assay with SF-268. Besides, the GI50 is 13.5 µM (inactive) in the assay on SK-MEL-5; 20 µM (inactive) in the assay with MDA-N; 23.5 µM (inactive) with RXF 393; 29.2 µM (inactive) with NCI-H460; 97.7 µM (inactive) in the assay with DU-145; 20.6 µM (inactive) with SK-MEL-2. Moreover, the GI50 in the assay with PC-3 was 41.6 µM (inactive); in the assay on LOX IMVI, 21.5 µM (inactive); in the assay with CAKI-1 it was 47.1 µM (inactive); in the assay on BT-549, 45.1 µM (inactive); in the assay with SK-MEL-28, 13.7 µM (inactive); in the assay with K562 it was 14 µM (inactive).
